According to patent US20240400584A1, “COMPOUNDS AND METHODS FOR MODULATING SPLICING” (REMIX THERAPEUTICS INC., priority 2021, published 2024):

Columns and labels:
[1] = tested on: HiBit-tagged HTT in K562 cells; experiment: HiBiT protein abundance assay, HTT; format: cell-based, human; details: HiBiT-modified K562 cells, 24 hours, luminescence
Method: Compounds described herein were used to screen for effects on quantitative protein abundance using a HiBit assay system (Promega). Quantitative protein abundance was determined by measuring the protein levels of HiBit-tagged protein targets expressed in cell culture via luminescence using the Nano-Glo HiBiT Lytic Detection System, which uses a split complementation assay format to reconstitute NanoBiT enzyme to generate a luminescent signal. A protein abundance assay was developed such that endogenous protein targets could be modified with the HiBiT peptide tag and their abundance could be assessed after compound treatment. Briefly, K562 cell lines containing a HiBiT-modification were treated with various compounds described herein (e.g., compounds of Formulas (I)). After treatment for 24 hours, the protein abundance of a specific target was determined by measuring luminescence.
Cells were maintained in IMDM with 10% FBS. Before the assay, cells were diluted with […] growth media (IMDM+[…] media) and were seeded in a 384-well plate at a density of 10000 cells/well (for each cell line listed in Table 8). Each compound was prepared as a 10-point 3-fold serial dilution in DMSO with the top dose at a final concentration of 10 μM in the well. Unmodified K562 cells were added at the previously specified density with DMSO to serve as an assay baseline and positive control (PC) and DMSO only with the respective modified cell lines was added to the negative control (NC) columns. Final DMSO concentration was kept at or below 0.25% o. Treated cell plates were placed in an incubator at 37° C. with […] for 24 hours. After 24 hours, 25 μL of Complete HiBit Lytic reagent was added to each well at room temperature (e.g. one plate requiring 10 mL Lytic Buffer, 100 μL LgBiT Protein, 200 μL Lytic Substrate), shaken for 5 minutes at 600 RPM, then left to sit for 10 minutes for signal to stabilize before reading on a Spark Cyto plate reader (Tecan) with a 500 ms measurement time.
To determine compound effects on protein abundance of each target in Table 9, the percent response for each respective cell line was calculated at each compound concentration as follows:
For the normalized response at each concentration, a four-parameter logistical regression was fit to the data and the response was interpolated at the […] to determine a concentration for protein abundance at 50% o (IC50) the untreated control.

MYB = experiment: RT-qPCR splicing assay, MYB AJ/CJ mRNA; format: cell-based; details: Homo sapiens, A673 or K562 cells, 24 hours; for IC50: decrease in canonical junction mRNA; for AC50: increase in alternative junction mRNA
How it was run: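 Following 24 h compound exposure at 37 °C (11 points, 3-fold, highest 10 uM; DMSO ≤0.25%), A673 or K562 lysates underwent RT-qPCR for exon-inclusion (AJ) and canonical (CJ) junctions of HTT and MYB. Relative quantification used housekeeping-gene ΔCt and DMSO-normalized ΔΔCt, converted to percentage response.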

Row | IC50 [1] [µM] | IC50 (MYB) [µM] | SMILES | AC50 (MYB) [µM]
1 | 1 to 10 | 1 to 10 | c1cc2c(cc1-c1cn[nH]c1)COc1nc(N3CCC34CCNC4)ccc1-2 (stereo not drawn) [Compound 207] | 0.1 to 1
2 | < 0.1 | 0.1 to 1 | Cc1ncc(-c2ccc3c(c2)COc2nc(O[C@@H]4C[C@H]5C[C@@H](C4)N5)ccc2-3)s1 [Compound 208] | 0.1 to 1
3 | 0.1 to 1 | 0.1 to 1 | COc1cc(-c2ccc3c(c2)COc2nc(N4CCC(NC5(C)CCC5)C4)ccc2-3)cnn1 (stereo not drawn) [Compound 285, 1-[8-(6-methoxypyridazin-4-yl)-6H-isochromeno[3,4-b]pyridin-3-yl]-N-(1-methylcyclobutyl)pyrrolidin-3-amine] | 0.1 to 1
4 | 1 to 10 | > 10 | CC(C)Oc1cnnc(-c2ccc3c(c2)COc2nc(N4CCC(NC(C)(C)C)C4)ccc2-3)c1 (stereo not drawn) [Compound 286] | > 10
5 | 0.1 to 1 | 1 to 10 | COc1cc(-c2ccc3c(c2)COc2nc(N4CCN[C@@H](C)C4)ccc2-3)cnn1 [Compound 287] | 1 to 10
6 | 0.1 to 1 | 1 to 10 | COc1cc(-c2ccc3c(c2)COc2nc(N4CCC(N5CCCC5)C4)ccc2-3)cnn1 (stereo not drawn) [Compound 305] | 1 to 10
7 | 0.1 to 1 | 1 to 10 | COc1cc(-c2ccc3c(c2)COc2nc(N4CCC(N(C)C)C4)ccc2-3)cnn1 (stereo not drawn) [Compound 306, 1-[8-(6-methoxypyridazin-4-yl)-6H-isochromeno[3,4-b]pyridin-3-yl]-N,N-dimethylpyrrolidin-3-amine] | 1 to 10
8 | 0.1 to 1 | 1 to 10 | COc1cc(-c2ccc3c(c2)COc2nc(N4CCC(N(C)C5CCC5)C4)ccc2-3)cnn1 (stereo not drawn) [Compound 307, N-cyclobutyl-1-[8-(6-methoxypyridazin-4-yl)-6H-isochromeno[3,4-b]pyridin-3-yl]-N-methylpyrrolidin-3-amine] | 0.1 to 1

Row | SMILES | IC50 [1] [µM] | IC50 (MYB) [µM] | AC50 (MYB) [µM]
9 | Cc1cnc(-c2ccc3c(c2)COc2nc(N(C)[C@@H]4C[C@H]5CC[C@@H](C4)N5)ccc2-3)o1 [Compound 206] | < 0.1 | 0.1 to 1 | 1 to 10
10 | c1cc2c(cc1-c1cn[nH]c1)COc1nc(O[C@@H]3C[C@H]4CC[C@@H](C3)N4)ccc1-2 [Compound 218] | 0.1 to 1 | 0.1 to 1 | 0.1 to 1
11 | COc1cc(-c2ccc3c(c2)COc2nc(O[C@@H]4C[C@H]5COC[C@@H](C4)N5)ccc2-3)cnn1 [Compound 290, (exo)-7-{[8-(6-methoxypyridazin-4-yl)-6H-isochromeno[3,4-b]pyridin-3-yl]oxy}-3-oxa-9-azabicyclo[3.3.1]nonane] | < 0.1 | 0.1 to 1 | 0.1 to 1
